Experimental data as given in patent US12594267B2, “Capsid inhibitors for the treatment of HIV” (Gilead Sciences, Inc., priority 2018, dated 2026).
Where two headings read alike, the source gives them in different places.

Test: PK after subcutaneous administration of solutions in dogs
Format: in vivo, Beagle dog
Conditions: dog, plasma, sc, dog, mean ± SD, n=3; for concentration at 56 d: read-out: C56d
Experimental: Formulations containing the compound of Formula (Ia) were prepared as aqueous solutions or oral formulations and administered subcutaneously to rats, dogs, cynomolgus monkey, and/or rhesus monkey.
A solution of the compound of Formula (Ia) in 10% ethanol, 13% water, and 77% PEG 200 (400 mg/mL) was prepared. The solution was administered subcutaneously to dogs at a dose of 12 mg/kg and rats at a dose of 50 mg/kg and the pharmacokinetic (PK) profile was determined. […] In both species, plasma concentrations of the compound of Formula (Ia) were maintained above the target trough concentration of 20 nM (corresponding to an IQ of 5) for at least 84 days (12 weeks).
A solution of the compound of Formula (Ia) in 15% water and 85.0 PEG 300 (400 mg/mL) was prepared. The solution was administered subcutaneously to male beagle dogs at a dose level of 12 mg/kg and dose volume of […] and the pharmacokinetic (PK) profile was determined.
A solution of the compound of Formula (a) sodium salt in water and 300 (300 mg/mL) was prepared that contained 22.6% water/50% PEG 300/1.1% NaOH/26.3% Formula (Ia). The solution was administered subcutaneously to male beagle dogs at a dose level of 12 mg/kg and dose volume of […] and the pharmacokinetic (PK) profile was determined.
A 300 mg/ml solution of a compound of Formula (Ia) having 9.8 w/w % water, 65.0 w/w % PEG 300, and 25.2 w/w % of the compound of Formula (Ia) was prepared. The solution was administered subcutaneously to rats at a dose of 50 mg/kg and to dogs at a dose of 12 mg/kg and the pharmacokinetic (PK) profile was determined. […] In the rat, plasma concentrations of the compound of Formula (Ia) were maintained above the target trough concentration of 20 nM for at least 168 days (24 weeks). In the dog, plasma concentrations of the compound of Formula (Ia) were maintained above the target trough concentration of 20 nM for at least 84 days (12 weeks).
(§1) A 150 mg/ml solution of a compound of Formula (Ia) having 27.92 w/w % water, 58.04 w/w % PEG 300, 13.47 w/w % of a compound of Formula (Ia), and 1.1 w/w % NaOH was prepared. The solution was administered subcutaneously to rats at a dose of 50 mg/kg and to dogs at a dose of 12 mg/kg and the pharmacokinetic (PK) profile was determined. […] In the rat, plasma concentrations of the compound of Formula (Ia) were maintained above the target trough concentration of 20 nM for at least 126 days (18 weeks). In the dog, plasma concentrations of the compound of Formula (Ia) were maintained above the target trough concentration of 20 nM for at least 56 days (8 weeks).
as §1, with “300” for “150”, “23.2” for “27.92”, “50.0” for “58.04”, “25.7” for “13.47”
A 50 mg/ml solution of a compound of Formula (Ia) having 30.07 w/w % water, 64.40 w/w % PEG 300, 4.68 w/w % of a sodium salt of the compound of Formula (Ia), and 0.85 w/w % poloxamer 188 was prepared. The solution was administered subcutaneously to rats at a dose of 50 mg/kg and to dogs at a dose of 6 mg/kg and the pharmacokinetic (PK) profile was determined. […] In the rat, plasma concentrations of the compound of Formula (Ia) were maintained above the target trough concentration of 20 nM for at least 28 days (4 weeks). In the dog, plasma concentrations of the compound of Formula (Ia) were maintained above the target trough concentration of 20 nM for at least 14 days (2 weeks). […]

[1] = Beagle, 6 mg/kg, SC 6 mg/kg, 150 mg/mL solution (w/w %: 26.6 water, 56.97 PEG 300, 13.39 Formula (Ia), 0.57 NaOH, 2.49 poloxamer 188)
[2] = beagle, 6 mg/kg, SC 6 mg/kg, 300 mg/mL solution (w/w %: 21.97 water, 47.05 PEG 300, 25.21 Formula (Ia), 1.08 NaOH, 4.69 poloxamer 188)
[3] = beagle, 12 mg/kg, SC 12 mg/kg, 150 mg/mL solution (w/w %: 27.92 water, 58.04 PEG 300, 13.47 Formula (Ia), 1.1 NaOH)
[4] = beagle, 12 mg/kg, SC 12 mg/kg, 300 mg/mL solution (w/w %: 9.8 water, 65.0 PEG 300, 25.2 Formula (Ia))
[5] = beagle, 12 mg/kg, SC 12 mg/kg, 300 mg/mL solution (w/w %: 23.2 water, 50.0 PEG 300, 25.7 Formula (Ia), 1.1 NaOH)

Structure (SMILES): CC(C)(C#Cc1ccc(-c2ccc(Cl)c3c(NS(C)(=O)=O)nn(CC(F)(F)F)c23)c([C@H](Cc2cc(F)cc(F)c2)NC(=O)Cn2nc(C(F)(F)F)c3c2C(F)(F)[C@@H]2C[C@H]32)n1)S(C)(=O)=O [Formula (Ia), N—((S)-1-(3-(4-chloro-3-(methylsulfonamido)-1-(2,2,2-trifluoroethyl)-1H-indazol-7-yl)-6-(3-methyl-3-(methylsulfonyl)but-1-yn-1-yl)pyridin-2-yl)-2-(3,5-difluorophenyl)ethyl)-2-((3bS,4aR)-5,5-difluoro-3-(trifluoromethyl)-3b,4,4a,5-tetrahydro-1H-cyclopropa[3,4]cyclopenta[1,2-c]pyrazol-1-yl)acetamide]
- AUC(0-t) (Beagle, 6 mg/kg, SC 6 mg/kg, 100 mg/mL solution (w/w %: 28.36 water, 60.73 PEG 300, 9.23 sodium salt of Formula (Ia), 1.68 poloxamer 188), read-out: AUC0-24h): 6.05 ± 3.43 µM·h
- AUC(0-t) (Beagle, 6 mg/kg, SC 6 mg/kg, 125 mg/mL solution (w/w %: 27.51 water, 58.92 PEG 300, 11.48 sodium salt of Formula (Ia), 2.09 poloxamer 188), read-out: AUC0-24h): 4.71 ± 1.51 µM·h
- AUC(0-t) (Beagle, 6 mg/kg, SC 6 mg/kg, 125 mg/mL solution (w/w %: 27.51 water, 58.92 PEG 300, 11.48 sodium salt of Formula (Ia), 2.09 poloxamer 188), read-out: AUC0-14d): 90.3 ± 3.5 µM·h
- Cmax [1]: 101 ± 44 nM
- Tmax [1]: 10 ± 15.6 days
- AUC(0-t) (Beagle, 6 mg/kg, SC 6 mg/kg, 150 mg/mL solution (w/w %: 26.6 water, 56.97 PEG 300, 13.39 Formula (Ia), 0.57 NaOH, 2.49 poloxamer 188), read-out: AUC0-56d): 69 ± 13.9 µM·h
- AUC(0-t) (Beagle, 6 mg/kg, SC 6 mg/kg, 150 mg/mL solution (w/w %: 26.6 water, 56.97 PEG 300, 13.39 Formula (Ia), 0.57 NaOH, 2.49 poloxamer 188), read-out: AUC0-84d): 76.6 ± 8.5 µM·h
- concentration at 56 d [1]: 24.9 nM
- AUC(0-t) (beagle, 6 mg/kg, SC 6 mg/kg, 50 mg/mL solution (w/w %: 30.07 water, 64.40 PEG 300, 4.68 sodium salt of Formula (Ia), 0.85 poloxamer 188), read-out: AUC0-24h): 14.7 ± 4.4 µM·h
- concentration at 14 d (beagle, 6 mg/kg, SC 6 mg/kg, 50 mg/mL solution (w/w %: 30.07 water, 64.40 PEG 300, 4.68 sodium salt of Formula (Ia), 0.85 poloxamer 188), read-out: C14d): 37.2 ± 13.9 nM
- AUC(0-t) (beagle, 6 mg/kg, SC 6 mg/kg, 75 mg/mL solution (w/w %: 29.21 water, 62.55 PEG 300, 6.97 sodium salt of Formula (Ia), 1.68 poloxamer 188), read-out: AUC0-24h): 5.88 ± 1.95 µM·h
- AUC(0-t) (beagle, 6 mg/kg, SC 6 mg/kg, 75 mg/mL solution (w/w %: 29.21 water, 62.55 PEG 300, 6.97 sodium salt of Formula (Ia), 1.68 poloxamer 188), read-out: AUC0-28d): 101 ± 11 µM·h
- concentration at 21 d (beagle, 6 mg/kg, SC 6 mg/kg, 75 mg/mL solution (w/w %: 29.21 water, 62.55 PEG 300, 6.97 sodium salt of Formula (Ia), 1.68 poloxamer 188), read-out: C21d): 40 ± 24 nM
- Cmax [2]: 69 ± 22 nM
- AUC(0-t) (beagle, 6 mg/kg, SC 6 mg/kg, 300 mg/mL solution (w/w %: 21.97 water, 47.05 PEG 300, 25.21 Formula (Ia), 1.08 NaOH, 4.69 poloxamer 188), read-out: AUC0-56d): 55.4 ± 20.8 µM·h
- concentration at 56 d [2]: 30.4 ± 7.2 nM
- Cmax [3]: 312 ± 93 nM
- Tmax [3]: 16.3 ± 4.04 days
- concentration at 56 d [3]: 22.9 ± 5.6 nM
- Cmax [4]: 133 ± 10 nM
- Tmax [4]: 14 days
- AUC(0-t) (beagle, 12 mg/kg, SC 12 mg/kg, 300 mg/mL solution (w/w %: 9.8 water, 65.0 PEG 300, 25.2 Formula (Ia)), read-out: AUC0-126d): 139 ± 8 µM·h
- concentration at 84 d (beagle, 12 mg/kg, SC 12 mg/kg, 300 mg/mL solution (w/w %: 9.8 water, 65.0 PEG 300, 25.2 Formula (Ia)), read-out: C84d): 21.7 ± 6.5 nM
- Cmax [5]: 267 ± 176 nM
- Tmax [5]: 12.3 ± 9.62 days
- AUC(0-t) (beagle, 12 mg/kg, SC 12 mg/kg, 300 mg/mL solution (w/w %: 23.2 water, 50.0 PEG 300, 25.7 Formula (Ia), 1.1 NaOH), read-out: AUC0-56d): 166 ± 110 µM·h
- concentration at 56 d [5]: 29.6 ± 30.8 nM
- AUC(0-t) (beagle, 12 mg/kg, SC 12 mg/kg, 400 mg/mL solution in 10% ethanol, 13% water, 77% PEG 200, read-out: AUC0-84d): 89.6 ± 10.1 µM·h
